Assay results reported in ChEMBL document CHEMBL4689842, “EUbOPEN Chemogenomics Library wave 1” (2021).

What was measured:
Type in all cases: toxicity, cell-based
[1] = system: HEK-293T; test: Incucyte cell viability with HEK293T; conditions: human, 10 µM, compound concentration 10 uM
[2] = system: Fibroblast; test: Incucyte cell viability with human fibroblast; conditions: 10 µM, compound concentration 10 uM
[3] = system: U2OS; test: Incucyte cell viability with U2OS; conditions: human, 10 µM, compound concentration 10 uM
[4] = 0 h, replicate number 1, timepoint 0 hours
[5] = 6 h, replicate number 1, timepoint 6 hours
[6] = 12 h, replicate number 1, timepoint 12 hours
[7] = 18 h, replicate number 1, timepoint 18 hours
[8] = 24 h, replicate number 1, timepoint 24 hours
[9] = 24 h, replicate number 2, timepoint 24 hours
[10] = 0 h, replicate number 2, timepoint 0 hours
[11] = 6 h, replicate number 2, timepoint 6 hours
[12] = 12 h, replicate number 2, timepoint 12 hours
[13] = 18 h, replicate number 2, timepoint 18 hours
Note: filed as whole numbers so only -1 and 0 and 1 occur.

Compound	Growth Rate [1, 4]	Growth Rate [1, 5]	Growth Rate [1, 6]	Growth Rate [1, 7]	Growth Rate [1, 8]	Growth Rate [1, 9]	Growth Rate [2, 4]	Growth Rate [2, 11]	Growth Rate [2, 12]	Growth Rate [2, 7]	Growth Rate [2, 13]	Growth Rate [2, 8]	Growth Rate [3, 4]	Growth Rate [3, 5]	Growth Rate [3, 11]	Growth Rate [3, 6]	Growth Rate [3, 7]	Growth Rate [3, 13]	Growth Rate [3, 8]	Growth Rate [2, 6]	other results
NC(=O)[C@@H]1CCCN1C(=O)[C@H](Cc1cnc[nH]1)NC(=O)[C@@H]1CCC(=O)N1 [PROTIRELIN]	0	1	1	1	1	0	0	0	1	1	0	1	0	1	0	0	0	1	0		Growth Rate [2, 10]: 1; Growth Rate [2, 9]: 0
CCN1CCC[C@H]1CNC(=O)c1c(OC)ccc(Br)c1OC [REMOXIPRIDE]	0	1	1	1	1		0	0	0	1	0	1			1	0	0	1	0		Growth Rate [2, 9]: 0; Growth Rate [3, 12]: 1; Growth Rate [3, 9]: 1
CN(CCOc1ccc(CC2SC(=O)NC2=O)cc1)c1ccccn1 (stereo unspecified) [ROSIGLITAZONE]	1	1	1	1	1	0	0	0	0	1	0	1	0	0	1	1	1		1	1	Growth Rate [1, 10]: 0; Growth Rate [1, 11]: 0; Growth Rate [1, 12]: 0; Growth Rate [1, 13]: 0
Cc1cc(OCC(=O)O)cc(C)c1Cc1ccc(O)c(C(C)C)c1 [SOBETIROME]	0	0	0	0	0	1	0	0	0	1		0			0	1	0	1	1		Growth Rate [1, 13]: 1; Growth Rate [2, 5]: -1; Growth Rate [2, 9]: 1; Growth Rate [3, 10]: 0
O=C1c2ccc(Nc3ccc(F)cc3F)cc2CCc2ccc(OC[C@H](O)CO)cc21 [Skepinone-L]		0			1					0		0	0	0		0	0	1	0	0	Growth Rate [2, 5]: 0
COc1cccc(CNC(=O)c2nc3scc(COCc4ccc(C(=O)O)cc4)c3c(=O)[nH]2)c1 [T-26c]	0			1	1			0	0	1	0	1	0	1	0	1	1		1	1	Growth Rate [1, 10]: 1; Growth Rate [2, 10]: 0; Growth Rate [3, 12]: 0
CCOC(=O)c1ccc(C#Cc2ccc3c(c2)C(C)(C)CCS3)nc1 [TAZAROTENE]		0	0	0	0		0			1		0			1	0	0	1	0	1	Growth Rate [1, 10]: 0; Growth Rate [1, 11]: 1; Growth Rate [3, 10]: 0; Growth Rate [3, 12]: 1; Growth Rate [3, 9]: 1
Cc1ccc2[nH]c(CNCCCc3ccncc3)cc(=O)c2c1 [UCSF924NC]	1	0	0	0	0	1	1			0		0		0		0	0	1	0	0	Growth Rate [1, 10]: 0; Growth Rate [1, 11]: 1; Growth Rate [1, 12]: 1; Growth Rate [1, 13]: 1; Growth Rate [2, 5]: 0; Growth Rate [3, 12]: 1
CC[C@@H]1CN(C(=O)NCC(F)(F)F)C[C@@H]1c1cnc2cnc3[nH]ccc3n12 [UPADACITINIB]	0					1	0			1		1	0	0		0	0		0	1	Growth Rate [2, 5]: 1; Growth Rate [3, 10]: 1; Growth Rate [3, 12]: 1
O=C(NNS(=O)(=O)c1ccccc1)c1cc(-c2ccnnc2)ccc1F [WM-2474]	0	1	1	1	0	1	0	0		1		1	1	0		0	0		1	1	Growth Rate [3, 10]: 0; Growth Rate [3, 9]: 0
CC(C)(Cc1ccccc1)NCC(O)c1ccc(O)c(NS(C)(=O)=O)c1.Cl (stereo unspecified) [ZINTEROL HYDROCHLORIDE]	0	1	1	1	1	0			1		1			0		1	0	1	1		Growth Rate [1, 11]: 0; Growth Rate [1, 12]: 0; Growth Rate [1, 13]: 0; Growth Rate [2, 9]: 1
